pIC50: −log10 of the molar value.
Biological target: ROCK2 (human) (UniProt O75116)
Experiment: Inhibition of ROCK2 Kinase Activity

ROCK2 (human), sequence (O75116 whole entry, looked up): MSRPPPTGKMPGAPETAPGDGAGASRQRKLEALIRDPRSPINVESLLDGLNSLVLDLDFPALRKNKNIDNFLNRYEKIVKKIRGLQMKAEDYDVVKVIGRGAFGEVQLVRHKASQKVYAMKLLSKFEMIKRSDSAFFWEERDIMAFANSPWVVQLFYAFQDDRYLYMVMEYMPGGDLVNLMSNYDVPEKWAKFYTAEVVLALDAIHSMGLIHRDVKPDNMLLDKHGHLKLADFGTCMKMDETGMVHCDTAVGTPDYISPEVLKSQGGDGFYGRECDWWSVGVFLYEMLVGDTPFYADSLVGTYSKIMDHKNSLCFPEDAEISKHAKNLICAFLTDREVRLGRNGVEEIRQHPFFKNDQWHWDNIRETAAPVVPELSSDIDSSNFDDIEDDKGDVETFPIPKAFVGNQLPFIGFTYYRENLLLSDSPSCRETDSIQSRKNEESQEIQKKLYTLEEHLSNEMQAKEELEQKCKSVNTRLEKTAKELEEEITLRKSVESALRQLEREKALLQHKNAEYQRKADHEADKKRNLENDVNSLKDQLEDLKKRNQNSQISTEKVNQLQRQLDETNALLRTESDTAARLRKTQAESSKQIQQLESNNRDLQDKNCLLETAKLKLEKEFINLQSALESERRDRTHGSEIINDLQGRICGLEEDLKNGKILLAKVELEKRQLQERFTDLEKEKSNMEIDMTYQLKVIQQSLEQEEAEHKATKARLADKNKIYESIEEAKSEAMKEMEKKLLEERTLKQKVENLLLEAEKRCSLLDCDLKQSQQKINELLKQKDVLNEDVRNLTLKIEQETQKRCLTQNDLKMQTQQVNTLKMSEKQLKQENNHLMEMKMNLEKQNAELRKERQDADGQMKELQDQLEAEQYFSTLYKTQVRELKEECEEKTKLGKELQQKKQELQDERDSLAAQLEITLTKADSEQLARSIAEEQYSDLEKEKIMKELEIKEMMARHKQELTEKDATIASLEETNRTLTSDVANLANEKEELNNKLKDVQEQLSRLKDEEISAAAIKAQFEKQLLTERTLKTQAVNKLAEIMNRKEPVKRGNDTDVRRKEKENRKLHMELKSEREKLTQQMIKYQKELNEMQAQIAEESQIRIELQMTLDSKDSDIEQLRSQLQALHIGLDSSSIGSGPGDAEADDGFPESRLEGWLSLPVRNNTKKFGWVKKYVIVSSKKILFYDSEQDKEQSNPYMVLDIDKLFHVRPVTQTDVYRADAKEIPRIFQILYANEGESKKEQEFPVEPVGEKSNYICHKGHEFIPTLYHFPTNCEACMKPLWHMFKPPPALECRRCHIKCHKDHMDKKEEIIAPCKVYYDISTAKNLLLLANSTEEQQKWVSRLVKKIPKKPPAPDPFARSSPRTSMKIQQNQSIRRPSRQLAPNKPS

Structure (SMILES)	pIC50
Cc1ccc(F)cc1C(=O)NCc1nc(-c2c[nH]c3ncccc23)n[nH]1	< 5.30
COc1cccc(OC)c1C(=O)NCc1nc(-c2c[nH]c3ncccc23)n[nH]1	< 5.30
CC(=O)c1ccccc1C(=O)NCc1nc(-c2c[nH]c3ncccc23)n[nH]1	< 5.30
O=C(NCc1nc(-c2c[nH]c3ncccc23)n[nH]1)c1cc(O)ccc1[N+](=O)[O-]	< 5.30
O=C(NCc1nc(-c2c[nH]c3ncccc23)n[nH]1)c1ccc(Cl)c([N+](=O)[O-])c1	< 5.30
O=C(NCc1nc(-c2c[nH]c3ncccc23)n[nH]1)c1cccc2ccccc12	< 5.30
Cc1ccccc1C(=O)NCc1nc(-c2c[nH]c3ncccc23)n[nH]1	< 5.30
Cc1cc(C)c(C(=O)NCc2nc(-c3c[nH]c4ncccc34)n[nH]2)c(C)c1	< 5.30
O=C(NCc1nc(-c2c[nH]c3ncccc23)n[nH]1)c1cccc(O)c1O	< 5.30
COc1ccc(O)c(C(=O)NCc2nc(-c3c[nH]c4ncccc34)n[nH]2)c1	< 5.30
Cc1ccc(SCC(=O)NCc2nc(-c3c[nH]c4ncccc34)n[nH]2)cc1	< 5.30
O=C(c1cccs1)N1CCCC1c1nc(-c2ccncc2)n[nH]1 (stereo not drawn)	< 5.30
O=C(NCc1nc(-c2c[nH]c3ncccc23)n[nH]1)c1ccc(Cl)cc1Cl	< 5.30
CS(=O)(=O)Nc1cccc(C(=O)NCc2nc(-c3c[nH]c4ncccc34)cs2)c1	≥ 5.30
COc1ccccc1CC(=O)NCc1nc(-c2c[nH]c3ncccc23)n[nH]1	< 5.30
O=C(NCc1nc(-c2ccncc2)no1)c1cccs1	< 5.30
O=C(NCc1nc(-c2c[nH]c3ncccc23)cs1)c1cccs1	≥ 5.30
CC(C)(C)OC(=O)N1Cc2ccccc2CC1C(=O)NCc1nc(-c2c[nH]c3ncccc23)n[nH]1 (stereo not drawn)	< 5.30

Structure (SMILES)	pIC50
COc1ccc2cc(C(C)C(=O)NCc3nc(-c4c[nH]c5ncccc45)n[nH]3)ccc2c1 (stereo not drawn)	< 5.30
O=C(NCc1nc(-c2c[nH]c3ncccc23)n[nH]1)c1ccccc1C(F)(F)F	< 5.30
O=Cc1ccccc1OCC(=O)NCc1nc(-c2c[nH]c3ncccc23)n[nH]1	< 5.30
O=C(NCc1nc(-c2c[nH]c3ncccc23)n[nH]1)C1CCCO1 (stereo not drawn)	< 5.30
O=C(NCc1nc(-c2c[nH]c3ncccc23)n[nH]1)c1ccc([N+](=O)[O-])cc1Cl	< 5.30
O=C(NCc1nc(-c2c[nH]c3ncccc23)n[nH]1)c1ccc(F)c([N+](=O)[O-])c1	< 5.30
O=C(NCc1nc(-c2c[nH]c3ncccc23)n[nH]1)C1CCc2ccccc2C1 (stereo not drawn)	< 5.30
COc1cc(OC)c(C(=O)NCc2nc(-c3c[nH]c4ncccc34)n[nH]2)cc1OC	< 5.30
O=C(NCc1nc(-c2c[nH]c3ncccc23)n[nH]1)c1cc(Cl)ccc1[N+](=O)[O-]	< 5.30
O=C(NCc1nc(-c2c[nH]c3ncccc23)n[nH]1)c1c(F)cccc1Cl	< 5.30
O=C(NCc1nc(-c2c[nH]c3ncccc23)n[nH]1)c1ccc(O)cc1O	≥ 5.30
O=C(c1cccs1)N1CCn2nc(-c3ccncc3)nc2C1	< 5.30
O=C(NCc1nc(-c2c[nH]c3ncccc23)n[nH]1)c1cnc(O)c(Cl)c1	< 5.30
O=C(NCc1nc(-c2c[nH]c3ncccc23)n[nH]1)c1cc2ccccc2o1	< 5.30
COc1cc(C(=O)NCc2nc(-c3c[nH]c4ncccc34)n[nH]2)cc(Cl)n1	< 5.30
COc1cccc(O)c1C(=O)NCc1nc(-c2c[nH]c3ncccc23)n[nH]1	< 5.30
O=C(NCc1nc(-c2c[nH]c3ncccc23)n[nH]1)c1ccc(Cl)nc1	< 5.30

Results, then the compound that gave them:

pIC50	Structure (SMILES)
≥ 5.30	O=C(NCc1nc(-c2ccncc2)n[nH]1)c1ccc(CO)cc1
< 5.30	CC(=O)Oc1cccc(C(=O)NCc2nc(-c3ccncc3)n[nH]2)c1
< 5.30	O=C(NCc1nc(-c2c[nH]c3ncccc23)n[nH]1)c1ccc(I)cc1
< 5.30	COc1ccc(C=CC(=O)NCc2nc(-c3ccncc3)n[nH]2)cc1O
< 5.30	O=C(NCc1nc(-c2ccncc2)n[nH]1)c1cc2ccccc2o1
< 5.30	O=C(NCc1nc(-c2ccncc2)n[nH]1)c1ccc(Cl)c(Br)c1
≥ 5.30	O=C(NCc1nc(-c2ccncc2)n[nH]1)c1cc(O)ccc1O
< 5.30	O=C(NCc1nc(-c2ccncc2)n[nH]1)c1ccccc1
≥ 5.30	Cc1csc(C(=O)NCc2nc(-c3ccncc3)n[nH]2)c1
≥ 5.30	O=C(NCc1nc(-c2ccncc2)n[nH]1)c1ccc2cc(O)ccc2c1
< 5.30	O=C(NCc1nc(-c2ccncc2)n[nH]1)c1ccc(Cl)cc1[N+](=O)[O-]
< 5.30	O=C(NCc1nc(-c2ccncc2)n[nH]1)C1=CCCC1
< 5.30	O=C(NCc1nc(-c2ccncc2)n[nH]1)c1ccc(F)cc1Cl
≥ 5.30	O=C(NCc1nc(-c2ccncc2)n[nH]1)c1ccc(O)cc1O
< 5.30	CC(C)(C)C(=O)Oc1ccc(C(=O)NCc2nc(-c3ccncc3)n[nH]2)c(O)c1
≥ 5.30	O=C(NCc1nc(-c2ccncc2)n[nH]1)c1ccsc1
< 5.30	O=C(NCc1nc(-c2ccncc2)n[nH]1)c1cccc(O)c1
< 5.30	Cc1ccc(C(=O)NCc2nc(-c3c[nH]c4ncccc34)n[nH]2)cc1F
≥ 5.30	COC(=O)c1ccc(C(=O)NCc2nc(-c3ccncc3)n[nH]2)cc1
< 5.30	O=C(NCc1nc(-c2c[nH]c3ncccc23)n[nH]1)c1ccccc1
< 5.30	CC(=O)c1cccc(C(=O)NCc2nc(-c3c[nH]c4ncccc34)n[nH]2)c1
≥ 5.30	O=C(NCc1nc(-c2ccncc2)n[nH]1)c1ccc(O)cc1

pIC50	Structure (SMILES)
< 5.30	O=C(NCc1nc(-c2ccncc2)n[nH]1)c1ccc(F)cc1
< 5.30	O=C(NCc1nc(-c2ccncc2)n[nH]1)c1cc(Cl)ccc1Cl
< 5.30	O=C(NCc1nc(-c2ccncc2)n[nH]1)c1ccccc1Cc1ccccc1
< 5.30	O=C(NCc1nc(-c2ccncc2)n[nH]1)c1cnc[nH]1
< 5.30	N#Cc1ccc(C(=O)NCc2nc(-c3c[nH]c4ncccc34)n[nH]2)cc1
< 5.30	Cc1ccccc1OCC(=O)NCc1nc(-c2ccncc2)n[nH]1
< 5.30	O=C(NCc1nc(-c2ccncc2)n[nH]1)c1cccc([N+](=O)[O-])c1
< 5.30	CCc1ccc(C(=O)NCc2nc(-c3c[nH]c4ncccc34)n[nH]2)cc1
< 5.30	CCC(C(=O)NCc1nc(-c2ccncc2)n[nH]1)c1ccncc1 (stereo not drawn)
< 5.30	Cc1ccc(C(=O)NCc2nc(-c3c[nH]c4ncccc34)n[nH]2)cc1Br
< 5.30	O=C(NCc1nc(-c2ccncc2)n[nH]1)C1CCCCC1
< 5.30	O=C(C=Cc1ccccc1O)NCc1nc(-c2ccncc2)n[nH]1
< 5.30	O=S(=O)(NCc1nc(-c2ccncc2)n[nH]1)c1ccc(O)cc1
< 5.30	O=C(NCc1nc(-c2ccncc2)n[nH]1)C(Cl)(Cl)Cl
< 5.30	O=C(Cc1c(F)cccc1F)NCc1nc(-c2ccncc2)n[nH]1
< 5.30	CCCCOc1ccc(C(=O)NCc2nc(-c3c[nH]c4ncccc34)n[nH]2)cc1
< 5.30	Cc1cccc([N+](=O)[O-])c1C(=O)NCc1nc(-c2ccncc2)n[nH]1
< 5.30	Cc1cccc(CCC(=O)NCc2nc(-c3ccncc3)n[nH]2)c1
< 5.30	CCCCOc1ccc(C(=O)NCc2nc(-c3ccncc3)n[nH]2)cc1
< 5.30	O=C(C=Cc1ccc(Cl)cc1)NCc1nc(-c2ccncc2)n[nH]1
< 5.30	c1ccc2c(NCc3nc(-c4ccncc4)n[nH]3)n[nH]c2c1

From the Kinase Knowledgebase extract (Sharma et al. 2016)
